{"source": "patent US8452543B2", "about": "“High throughput screening for antimicrobial dosing regimens” (priority 2005, dated 2013)", "key": {"P. aeruginosa ATCC 27853 [1]": {"test_system": "P. aeruginosa ATCC 27853", "experiment": "MIC/MBC, modified macrobroth dilution", "assay_type": "cell-based, Pseudomonas aeruginosa", "details": "P. aeruginosa isolate (PA 27853)", "protocol": "The final concentration of bacteria in each macrobroth dilution tube was approximately 5×10^5 cfu/ml of Ca-MHB. Serial twofold dilutions of meropenem were used. […] Samples (50 μl) from clear tubes and the cloudy tube with the highest drug concentration were plated on Mueller-Hinton agar (MHA) plates (Hardy Diagnostics, Santa Maria, Calif.). […] Drug carry-over effect was assessed by visual inspection of the distribution of colonies on media plates. The studies were conducted in duplicate and repeated at least once on a separate day."}, "[2]": {"test_system": "S. aureus ATCC 29213 and clinical isolates 55, 60, 25, 62", "experiment": "MIC/MBC of S. aureus isolates to gentamicin", "assay_type": "cell-based, Staphylococcus aureus", "protocol": "Minimum inhibitory concentration (MIC)/minimum bactericidal concentration (MBC) were determined in Ca-MHB using a modified macrobroth dilution method as described by the CLSI (10). The final concentration of bacteria in each macrobroth dilution tube was approximately 5×10^5 cfu/ml of Ca-MHB. […] Samples (50 μl) from clear tubes and the cloudy tube with the highest drug concentration were plated on Mueller-Hinton agar (MHA) plates (Hardy Diagnostics, Santa Maria, Calif.). […] Drug carry-over effect was assessed by visual inspection of the distribution of colonies on media plates. The studies were conducted in duplicate and repeated at least once on a separate day. […]"}, "[3]": {"test_system": "S. aureus ATCC 29213 and clinical isolates 55, 60, 25, 62", "experiment": "Time-kill studies and pharmacodynamic modeling, gentamicin", "assay_type": "cell-based, Staphylococcus aureus", "protocol": "Time-kill studies were conducted with different and escalating meropenem concentrations. […] An overnight culture of the isolate was diluted 30-fold with pre-warmed Ca-MHB and incubated further at 35 8 C until reaching late log phase growth. The bacterial suspension was diluted with Ca-MHB accordingly based on absorbance at 630 nm; 15 mL of the suspension was transferred to 50 mL sterile conical flasks each containing 1 mL of an antimicrobial agent solution at 16 the target concentration. The final concentration of the bacterial suspension in each flask was 1×10^8 cfu/mL. The high inoculum used was to simulate the bacterial load in severe infection, and to allow resistant sub-population(s) to be present at baseline. The experiment was conducted for 24 h in a shaker water bath set at 35 8 C. Serial samples in duplicate were obtained from each flask over 24 h, at 0 (baseline), 2, 4, 8, 12, and 24 h, to characterize the effect of various meropenem concentrations on the total bacterial population. Prior to culturing the bacteria quantitatively, the bacterial samples (0.5 mL) were centrifuged at 10000 g for 15 min, and reconstituted with sterile normal saline to their original volumes in order to minimize drug carry-over effect. Total bacterial populations were quantified by spiral plating 10 serial dilutions of the samples ([…]) onto MHA plates. The media plates were incubated in a humidified incubator (35 8 C) for 18-24 h, and the bacterial density from each sample was determined by CASBA-4 colony scanner/software (Spiral Biotech, Bethesda, Md., USA).\nIn contrast to the conventional approach in which the final observed effects are modelled, information over time was utilized to develop a dynamic model system that would capture bacterial growth/killing rates. The starting point was a mathematical model describing the time course of bacterial burden [biological response, N(t)] under the influence of various antimicrobial agent concentrations C(t). The rate of change of bacteria over time was expressed as the difference between the intrinsic bacterial growth rate and the kill rate provided by the antimicrobial agent (Eq. 35). Based on previous studies, a linear bacterial growth rate was adopted. Additional model parameters were used to account for other physiological phenomena such as contact inhibition (using a maximum population size) and non-linear (sigmoidal) kill rate to account for target site saturation. Regrowth was attributed to adaptation, which was explicitly modelled as increase in the concentration necessary to achieve 50% maximal kill rate (C50k), using a saturable function of antimicrobial agent selective pressure (both meropenem concentration and time) (Eq. 36).\nTime-kill modeling was performed for S. Aureus and gentamicin as for P. aeruginosa according to procedures and dynamic growth modeling in Examples 2-3."}, "S. aureus ATCC 29213": {"test_system": "S. aureus ATCC 29213", "experiment": "Hollow-fiber infection model, gentamicin", "assay_type": "cell-based, Staphylococcus aureus", "protocol": "The computer simulations were compared to experimental data from an in-vitro hollow fiber infection model with similar antimicrobial agent exposures (20). Basically the drug was injected directly into the central reservoir to achieve the peak concentration desired. Fresh (drug-free) growth medium (Ca-MHB) was continuously infused from the diluent reservoir into the central reservoir to dilute the drug in order to simulate drug elimination in humans. […] Bacteria were inoculated into the extracapillary compartment of the hollow-fiber cartridge (Fibercell Systems, Inc., Frederick, Md.); they are confined in the extracapillary compartment, but are exposed to the fluctuating drug concentration in the central reservoir by means of an internal circulatory pump in the bioreactor loop. The optional absorption compartment of the system was not used."}, "P. aeruginosa ATCC 27853 [4]": {"test_system": "P. aeruginosa ATCC 27853", "experiment": "Time-kill studies and best-fit model, gentamicin", "assay_type": "cell-based, Pseudomonas aeruginosa", "details": "PA 27853", "protocol": "A clinical relevant concentration range of gentamicin (from 0-32 mg/l) was used. […] The data were used as inputs to derive the best-fit model parameter estimates, as previously described (24, 17). The baseline inoculum (10^7 CFU/ml) was deemed to be dense enough to constitute a heterogeneous bacterial population. […] In Table 5: PA—P. aeruginosa, AB—A. baumannii, Kg—growth rate constant for bacterial population, Nmax—maximum population size, Kk—maximal kill rate constant for bacterial population, C50k—concentration to achieve 50% of maximal kill rate for bacterial population, H—sigmoidicity constant for bacterial population, β—maximal adaptation, and τ—rate of adaptation factor."}, "P. aeruginosa ATCC 27853 [5]": {"test_system": "P. aeruginosa ATCC 27853", "experiment": "Hollow fiber infection model, gentamicin", "assay_type": "cell-based, Pseudomonas aeruginosa", "details": "Cmax/MIC of 30 every 12 h", "protocol": "The media plates were incubated at 35° C. for up to 24 (total population) and 72 hours (sub-populations with reduced susceptibility), then bacterial density from each sample was enumerated visually. The theoretical lower limit of detection was 400 CFU/ml."}, "[6]": {"test_system": "amikacin resistant A. baumannii isolates", "experiment": "Resistance confirmation, repeat susceptibility testing, amikacin", "assay_type": "cell-based, Acinetobacter baumannii", "details": "amikacin resistant isolates"}, "[7]": {"test_system": "gentamicin resistant P. aeruginosa isolates", "details": "after serial passage on drug-free plates and storage at −70° C."}}, "note": "Values joined by “and” are separate entries in the source; they are usually repeats but may differ in a detail not shown here. Equal entries are not always repeated.", "data": [{"substance": "gentamicin", "values": [{"measurement": "MBC", "setting": "P. aeruginosa ATCC 27853 [1]", "value": "2 mg/l and 2/2 mg/l"}, {"measurement": "MIC", "setting": "P. aeruginosa ATCC 27853 [1]", "value": "2 mg/l and 2/2 mg/l"}, {"measurement": "MBC", "setting": "[2]; S. aureus strain 25", "value": 2, "unit": "μ/mL"}, {"measurement": "MIC", "setting": "[2]; S. aureus strain 25", "value": 1, "unit": "μ/mL"}, {"measurement": "MBC", "setting": "[2]; S. aureus strain 55", "value": 2, "unit": "μ/mL"}, {"measurement": "MIC", "setting": "[2]; S. aureus strain 55", "value": 0.5, "unit": "μ/mL"}, {"measurement": "MBC", "setting": "[2]; S. aureus strain 60", "value": 2, "unit": "μ/mL"}, {"measurement": "MIC", "setting": "[2]; S. aureus strain 60", "value": 1, "unit": "μ/mL"}, {"measurement": "MBC", "setting": "[2]; S. aureus strain 62", "value": "1/1 μ/mL"}, {"measurement": "MIC", "setting": "[2]; S. aureus strain 62", "value": "1/1 μ/mL"}, {"measurement": "MBC", "setting": "[2]; S. aureus strain ATCC 29213", "value": 2, "unit": "μ/mL"}, {"measurement": "MIC", "setting": "[2]; S. aureus strain ATCC 29213", "value": 1, "unit": "μ/mL"}, {"measurement": "C50K", "setting": "[3]; S. aureus strain 25", "value": 3.18, "unit": "mg/L"}, {"measurement": "H", "setting": "[3]; S. aureus strain 25", "value": 1.27}, {"measurement": "β", "setting": "[3]; S. aureus strain 25", "value": "9,952"}, {"measurement": "τ", "setting": "[3]; S. aureus strain 25", "value": 0.33, "unit": "µL/min/mg"}, {"measurement": "C50K", "setting": "[3]; S. aureus strain 55", "value": 2.58, "unit": "mg/L"}, {"measurement": "H", "setting": "[3]; S. aureus strain 55", "value": 1.07}, {"measurement": "β", "setting": "[3]; S. aureus strain 55", "value": 166.5}, {"measurement": "τ", "setting": "[3]; S. aureus strain 55", "value": 29.7, "unit": "µL/min/mg"}, {"measurement": "C50K", "setting": "[3]; S. aureus strain 60", "value": 1.05, "unit": "mg/L"}, {"measurement": "H", "setting": "[3]; S. aureus strain 60", "value": 1.52}, {"measurement": "β", "setting": "[3]; S. aureus strain 60", "value": 427.9}, {"measurement": "τ", "setting": "[3]; S. aureus strain 60", "value": 46.2, "unit": "µL/min/mg"}, {"measurement": "C50K", "setting": "[3]; S. aureus strain 62", "value": 0.65, "unit": "mg/L"}, {"measurement": "H", "setting": "[3]; S. aureus strain 62", "value": 1.61}, {"measurement": "β", "setting": "[3]; S. aureus strain 62", "value": 336.2}, {"measurement": "τ", "setting": "[3]; S. aureus strain 62", "value": 119, "unit": "µL/min/mg"}, {"measurement": "C50K", "setting": "[3]; S. aureus strain ATCC 29213", "value": 5.14, "unit": "mg/L"}, {"measurement": "H", "setting": "[3]; S. aureus strain ATCC 29213", "value": 0.75}, {"measurement": "β", "setting": "[3]; S. aureus strain ATCC 29213", "value": "14,620"}, {"measurement": "τ", "setting": "[3]; S. aureus strain ATCC 29213", "value": 1.83, "unit": "µL/min/mg"}, {"measurement": "concentrations beyond which the rate of killing seemed to plateau", "setting": "[3]; all five S. aureus isolates", "value": "4 to 8", "unit": "times the MIC"}, {"measurement": "bactericidal activity", "setting": "[3]; gentamicin concentration increased from 0.5 to 4 times the MIC", "value": "concentration dependent"}, {"measurement": "microbiologic response with repeated dosing", "setting": "S. aureus ATCC 29213; 3-times-daily dosing regimen", "value": "sustained bacterial suppression over 5 days"}, {"measurement": "killing at 24 h", "setting": "S. aureus ATCC 29213; both dosing regimens (once daily and 3 times daily, identical daily doses)", "value": "approximately 5 log"}, {"measurement": "microbiologic response with repeated dosing", "setting": "S. aureus ATCC 29213; once-daily dosing regimen, over the next 4 days", "value": "regrowth was apparent"}, {"measurement": "C50k", "setting": "P. aeruginosa ATCC 27853 [4]", "value": 0.72, "unit": "mg/L"}, {"measurement": "H", "setting": "P. aeruginosa ATCC 27853 [4]", "value": 3.73}, {"measurement": "Kk", "setting": "P. aeruginosa ATCC 27853 [4]", "value": 4.68, "unit": "h⁻¹"}, {"measurement": "β", "setting": "P. aeruginosa ATCC 27853 [4]", "value": 42.54}, {"measurement": "τ", "setting": "P. aeruginosa ATCC 27853 [4]", "value": 225, "unit": "µL/min/mg"}, {"measurement": "microbial response", "setting": "P. aeruginosa ATCC 27853 [5]", "value": "Sustained suppression of resistance emergence was achieved"}, {"measurement": "cross-resistance", "setting": "[6]", "value": "observed"}, {"measurement": "stability of resistance", "setting": "[7]", "value": "not stable"}]}]}
